Reference: US20260115170A1, “Method of Ameliorating a Symptom or a Disease in a Human Caused by Fungus” (ISHIHARA SANGYO KAISHA, LTD., priority 2020, published 2026)
≈ marks a conversion by molar mass, not a printed value.

What was measured:
Type in all cases: cell-based
[1] = system: Trichophyton rubrum (ATCCMYA4607); assay: Test Example 2 minimum inhibitory concentration; details: Sabouraud medium, 25° C. for 120 hours
Experimental: (§1) Test Microbial Strains: Candida albicans (NBRC1594 Strain), Candida glabrata (JCM3761 Strain), Cryptococcus neoformans (JCM3685 Strain), Aspergillus fumigatus (JCM10253), Aspergillus niger (ATCC6725), Trichophyton rubrum (ATCCMYA4607), Trichophyton interdegitale (ATCC9533), Microsporum canis (NBRC7863), and Arthroderma vanbreuseghemii (JCM1891)
(§2) The Candida microbes and the Cryptococcus microbe were cultured at 30° C. for 72 hours and the other microbes were cultured at 25° C. for 120 hours in Sabouraud media, and then suspended in 5 mL of PBS (containing 8 g of sodium chloride, 2.9 g of disodium hydrogen phosphate, 0.2 g of potassium chloride, and 0.2 g of potassium dihydrogen phosphate in 1000 mL) containing Tween80 (polyoxyethylene sorbitan monooleate: Kanto Chemical Co., Inc.) (1% (V/V))), and the resulting suspension was filtered through a cell strainer (φ40 μm). Spores were recovered from the filtrate by centrifugation (3500 rpm, 5 minutes) and washed twice with physiological saline, and then a spore suspension was prepared (1×10^6 spores/mL). 50 μL of the spore suspension was inoculated into a Sabouraud medium to which compound No. 6 dissolved in DMSO was added to have a predetermined concentration. The Candida microbes and the Cryptococcus microbe were cultured at 30° C. for 72 hours and the other microbes were cultured at 25° C. for 120 hours, then the presence or absence of colony growth was investigated, and the minimum inhibitory concentration was determined.

[2] = system: Aspergillus niger (ATCC6725); assay: Test Example 2 minimum inhibitory concentration; details: Sabouraud medium, 25° C. for 120 hours
Experimental: as §1, §2

[3] = system: Arthroderma vanbreuseghemii (JCM1891); assay: Test Example 2 minimum inhibitory concentration; details: Trichophyton mentagrophytes, Sabouraud medium, 25° C. for 120 hours
Experimental: as §1, §2

[4] = system: Aspergillus fumigatus (JCM10253); assay: Test Example 2 minimum inhibitory concentration; details: Sabouraud medium, 25° C. for 120 hours
Experimental: as §1, §2

[5] = system: Trichophyton interdegitale (ATCC9533); assay: Test Example 2 minimum inhibitory concentration; details: Sabouraud medium, 25° C. for 120 hours
Experimental: as §1, §2

[6] = system: Candida albicans (NBRC1594 Strain); assay: Test Example 2 minimum inhibitory concentration; details: Sabouraud medium, 30° C. for 72 hours
Experimental: as §1, §2

[7] = system: Candida glabrata (JCM3761 Strain); assay: Test Example 2 minimum inhibitory concentration; details: Nakaseomyces glabratus, Sabouraud medium, 30° C. for 72 hours
Experimental: as §1, §2

[8] = system: Cryptococcus neoformans (JCM3685 Strain); assay: Test Example 2 minimum inhibitory concentration; details: Sabouraud medium, 30° C. for 72 hours
Experimental: as §1, §2

[9] = system: Microsporum canis (NBRC7863); assay: Test Example 2 minimum inhibitory concentration; details: Sabouraud medium, 25° C. for 120 hours
Experimental: as §1, §2

[10] = system: Malassezia restricta (IFM55992); assay: Test Example 3-2 antifungal activity test, minimum fungicidal concentration after 1 minute; details: 1 minute contact, MLNA medium, 32° C. for 72 hours, read-out: Minimum fungicidal concentration (MFC100)
Experimental: Test Microbial Strain: Malassezia restricta (IFM55992) The Malassezia microbe (Malassezia restricta) cultured in a CHROMagar™ Malassezial Candida Prepared medium (peptone, special enzyme substrate mixture, chloramphenicol, olive oil, agar, manufactured by Kanto Chemical Co., Inc.) for 5 to 7 days was suspended in physiological saline, and a suspension thereof was prepared in such a way as to have an absorbance of 0.025 at 600 nm. Thereto, the test compound dissolved in DMSO was added in such a way as to provide a final concentration of 200, 100, 50, or 25 ppm, and after 1 minute, 10 μL of the suspension and 10 mL of physiological saline were placed in a syringe and stirred, and the syringe was connected to a 37 mm Quality Monitor (manufactured by Pall Corporation) followed by filtration and washing twice with 10 ml of physiological saline. The membrane filter was removed from the Quality Monitor, placed on a Leeming & Notman agar Modified medium (MLNA medium) (peptone, glucose, yeast extract, dried bovine bile, glycerol, glycerin stearate, Tween60, olive oil, agar), and subjected to culturing at 32° C. for 72 hours, the presence or absence of colony growth was investigated, and the minimum fungicidal concentration MFC100) was determined.

[11] = system: Malassezia sympodialis (IFM 48588); assay: Test Example 3-1 antifungal activity test, minimum fungicidal concentration after 1 minute; details: 1 minute contact, CHROMagar medium, 32° C. for 72 hours, read-out: Minimum fungicidal concentration (MFC100)
Experimental: (§3) Test Microbial Strains: Malassezia furfur (IFM 55951), Malassezia sympodialis (IFM 48588), and Malassezia globosa (IFM 51946) The Malassezia microbe (Malassezia furfur, Malassezia sympodialis, or Malassezia globosa) cultured in a CHROMagar™ Malassezia/Candida Prepared medium (peptone, special enzyme substrate mixture, chloramphenicol, olive oil, agar, manufactured by Kanto Chemical Co., Inc.) for 5 to 7 days was suspended in physiological saline, and a suspension thereof was prepared in such a way as to have an absorbance of 0.025 at 600 nm. Thereto, the test compound dissolved in DMSO was added in such a way as to provide a final concentration of 200, 100, 50, or 25 ppm, and after 1 minute, 10 μL of the suspension and 10 mL of physiological saline were placed in a syringe and stirred, and the syringe was connected to a 37 mm Quality Monitor (manufactured by Pall Corporation) followed by filtration and washing twice with 10 mL of physiological saline. The membrane filter was removed from the Quality Monitor, placed on a CHROMagar™ Malassezial Candida Prepared medium, and was subjected to culturing at 32° C. for 72 hours, the presence or absence of colony growth was investigated, and the minimum fungicidal concentration (MFC100) was determined.

[12] = system: Malassezia furfur (IFM 55951); assay: as above; details: 1 minute contact, CHROMagar medium, 32° C. for 72 hours, read-out: Minimum fungicidal concentration (MFC100)
Experimental: as §3

[13] = system: Malassezia globosa (IFM 51946); assay: as above; details: 1 minute contact, CHROMagar medium, 32° C. for 72 hours, read-out: Minimum fungicidal concentration (MFC100)
Experimental: as §3

MIC [1]: 31.3 µg/mL (≈ 124 µM)
MIC [2]: 62.5 µg/mL (≈ 248 µM)
MIC [3]: 7.8 µg/mL (≈ 30.9 µM)
MIC [4]: 62.5 µg/mL (≈ 248 µM)
MIC [5]: 62.5 µg/mL (≈ 248 µM)
MIC [6]: 250 µg/mL (≈ 992 µM)
MIC [7]: 250 µg/mL (≈ 992 µM)
MIC [8]: 31.3 µg/mL (≈ 124 µM)
MIC [9]: 125 µg/mL (≈ 496 µM)
SMILES: Cc1ccc(-c2nc(C#N)[nH]c2Cl)cc1Cl [Compound No. 6, 5-Chloro-4-(3-chloro-4-methylphenyl)-1H-imidazole-2-carbonitrile]
MFC [10]: 200 µg/mL (≈ 793 µM)
MFC [11]: 50 µg/mL (≈ 198 µM)
MFC [12]: 50 µg/mL (≈ 198 µM)
MFC [13]: 50 µg/mL (≈ 198 µM)
